In US3946013A, “1,3-BIS(Beta-ethylhexyl)-5-amino-5-methylhexahydropyrimidine-pyridine- 3-carboxylate, process for its preparation and pharmaceutical compositions containing this compound” (Wulfing; Johann A., priority 1973, dated 1976):
Structures can show the parent of a compound that is named as a salt.

Key:
female NMRI mice = experiment: LD50 acute toxicity in mice (Litchfield and Wilcoxon); type: in vivo; details: for Toxicity, LD50 i.p. / Toxicity, LD50 p.o.: female NMRI mice 20-30 g, 10 days observation, 14400 min
[1] = solubility (testability in the bacteriostatic test); type: physicochemical; details: could not be tested in bacteriostatic test
[2] = test system: bacterial parent strains (Escherichia coli, Proteus vulgaris, Pseudomonas aeruginosa); experiment: bacteriostatic activity (serial dilution in thioglycolate nutrient solution); type: cell-based; details: for concentration at which activity is (still) shown (text): after 6 days at 30°C; for Bacteriostatic activity in relation to concentration (table): solutions containing 100 mg hexetidine, incubated at 30°C for 6 days
Protocol: For a determination of bacteriostatic activity, solutions of hexetidine, hexetidine oxalate and hexetidine nicotinate having the following compositions were compared: The inoculum suspension was obtained by inoculation of a sterile Petri dish containing nutrient agar (standard I) with a test culture of bacterial parent strains (Escherichia coli, Proteus vulgaris, Pseudomonas aeruginosa) and incubation at 30°C for 24 hours. The suspension was either used immediately or stored at +4°C. The organisms grown in the Petri dish were elutriated with 5 ml physiological brine solution and diluted 1:10 with the same solution to a volume of 50 ml. Then 250 ml double concentrated thioglycolate solution (60 g/l) were mixed with 100 drops (about 5 ml) of the above 1:10 diluted primary culture of bacterial parent strains and shaken to obtain a uniform suspension. Serial dilutions were prepared for each of the above-mentioned compound solutions in the following concentrations, each comprising 10 test tubes of […]: hexetidine per ml: 1,000; 500; 250; 125; 62.5; about 31; about 16; about 8; about 4; about 2. Next, 5 ml double concentrated thioglycolate nutrient solution inoculated with the test organisms were added to each test tube by means of a pipet. Each test tube thus contained 50% of the final concentration. […]

[3] = antibacterial activity, general statement; type: cell-based
[4] = Saski and Shah 1965; Barkley et al. 1960/1961; cited from earlier work
[5] = LD50 acute toxicity in mice (Litchfield and Wilcoxon); type: in vivo; details: mouse, in vivo, po; female NMRI mice 20-30 g; 10 days observation
[6] = listed as Hexetidine nicotinate

With `CCCCC(CC)CN1CN(CC(CC)CCCC)CC(C)(N)C1` (stereo not drawn) [hexetidine cinnamate] the “Toxicity, LD50 i.p.” value (female NMRI mice; listed as Hexetidine cinnamate) was 54 mg/kg, the “Toxicity, LD50 p.o.” value (female NMRI mice; listed as Hexetidine cinnamate) was 1,740 mg/kg and the solubility [1] was “extreme insolubility”.

In the case of `CCCCC(CC)CN1CN(CC(CC)CCCC)CC(C)(N)C1` (stereo not drawn) [hexetidine nicotinate, 1,3-bis(β-ethylhexyl)-5-amino-5-methylhexahydropyrimidine pyridine-3-carboxylate], the “Toxicity, LD50 i.p.” value (female NMRI mice; [6]) is reported as 63 mg/kg, the “Toxicity, LD50 p.o.” value (female NMRI mice; [6]) is reported as 1,830 mg/kg and the “toxicity of hexetidine after salt formation with nicotinic acid” value (female NMRI mice; relative to hexetidine, mice) is reported as “substantially reduced”. The “concentration at which activity is (still) shown (text)” value (from here on “concentration at which activity is”) [2, 6] was 62.5 γ, the “Bacteriostatic activity in relation to concentration (table)” value (“Bacteriostatic activity in relation” for short) [2, 6] was 62.5 γ and the “antibacterial activity compared with hexetidine” value [3] was “particularly favorable increase in antibacterial activity”.

For `CCCCC(CC)CN1CN(CC(CC)CCCC)CC(C)(N)C1` (stereo not drawn) [hexetidine oxalate], the “Toxicity, LD50 i.p.” value (female NMRI mice; listed as Hexetidine oxalate) was 23 mg/kg, the “Toxicity, LD50 p.o.” value (female NMRI mice; listed as Hexetidine oxalate) was 970 mg/kg and the “concentration at which activity is” value ([2]; listed as Hexetidine oxalate) was > 500 γ. For the same compound, the “Bacteriostatic activity in relation” value ([2]; listed as Hexetidine oxalate) was 500 γ.

For `CCCCC(CC)CN1CN(CC(CC)CCCC)CC(C)(N)C1` (stereo not drawn) [hexetidine, 1,3-bis(β-ethylhexyl)-5-amino-5-methylhexahydropyrimidine], the “antibacterial activity (words, literature)” value [4] is given as “remarkable antibacterial activity”, the “Toxicity, LD50 i.p.” value (female NMRI mice; listed as Hexetidine) is given as 33 mg/kg and the LD50 at 240 h [5] is given as 960 mg/kg. The “concentration at which activity is” value [2] was 125 γ and the “Bacteriostatic activity in relation” value ([2]; listed as Hexetidine) was 125 γ.
